Experimental data: patent US20200157135A1, “SIDE-CHAIN MODIFIED ERGOSTEROL AND STIGMASTEROL DERIVATIVES AS LIVER X RECEPTOR MODULATORS” (Ospedale San Raffaele srl, priority 2017, published 2020)
“Also recorded” adds a separate entry of the source.

Experiments:
[1] = target: T1, hLXRα (Homo sapiens, UniProt Q13133); assay: luciferase assay with GAL-4 chimeric hLXRα receptor in human embryonic kidney 293 cells; type: cell-based; settings: for EC50: GAL4-hLXRα luciferase, HEK293, dose-response 32-1 μM, mean of three-five independent experiments, read-out: LXRα EC50 (μM) ± SD; for Emax: HEK293, 24 h, read-out: LXRα Efficacy (%) ± SD; for LXR isoform selectivity profile: LXRα versus LXRβ, GAL4 luciferase assays
T1 sequence (Q13133 209-447 limits assumed): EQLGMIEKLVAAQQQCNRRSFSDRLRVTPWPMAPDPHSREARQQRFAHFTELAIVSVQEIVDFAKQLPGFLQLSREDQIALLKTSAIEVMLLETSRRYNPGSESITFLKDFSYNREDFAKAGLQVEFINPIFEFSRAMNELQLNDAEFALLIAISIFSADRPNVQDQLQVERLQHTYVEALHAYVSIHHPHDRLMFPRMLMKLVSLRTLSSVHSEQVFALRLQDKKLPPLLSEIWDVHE
Method: (§1) All the synthesized compounds were first tested for their ability to activate LXRs by using luciferase assays with GAL-4 chimeric receptors. These were performed by co-transfecting plasmids encoding hLXRα- and β-binding domains fused to GAL-4, with the respective responsive element conjugated with the luciferase reporter gene into the human embryonic kidney 293 cells.
(§2) Cell Culture and Co-transfection Assays. Human embryonic Kidney 293 cells (American Type Culture Collection) were cultured in Dulbecco's Modified Eagle's medium containing 10% of fetal bovine serum at 37° C. in humidified atmosphere of 5% CO2. HEK293 cells (4×10^4 cells per well) were transiently transfected in 48 well plate with the reporter plasmids pMH100X4-TK-luc (100 ng/well), Renilla (22 ng/well) together with 100 ng/well of pCMX-Gal4-RXR, pCMX-Gal4-PPAR-γ, pCMX-Gal4-PXR, pFA-CMV-FXR pCMX-Gal4-LXR-α or pCMX-Gal4-LXR-β plasmids using X-tremeGENE 9 DNA Transfection Reagent (Roche). Six hours after transfection, the cells were treated with the appropriate compound for 24 hours. Luciferase activities were analyzed by luciferase Dual Reporter Assay Systems (Promega) according to the manufacturer's protocol. GAL4-LXRs, GAL4-PPAR-γ, GAL4-RXR and TK-MHC100-luc plasmids were described in Villablanca et al.49 GAL4-PXR was a kind gift of Dr. Enrique Sainz (The Scripps Research Institute, La Jolla, USA). GAL4-FXR was a kind gift of Dr. Daniel Merk (Goethe-University Frankfurt am Main). The results obtained by luciferase assays and reported in Table 1 are from three to five independent experiments.
(§3) Statistical analysis. Data are expressed as mean±SEM and were analyzed for significance by ANOVA with Dunnet's multiple comparison tests. The analysis was performed with Prism software. Data in Table 1 are expressed as EC50±SD. In particular, the standard deviations were obtained by calculating the mean of the EC50 of each experiment (three to five independent experiments). The efficacy (%) of the compounds was calculated as the percentage of the compound effect, in terms of LXRα or β activation, versus 8 μM of 22R—HC±SD. The analyses were performed with Prism software.

[2] = target: T2, hLXRβ (Homo sapiens, UniProt P55055); assay: luciferase assay with GAL-4 chimeric hLXRβ receptor in human embryonic kidney 293 cells; type: cell-based; settings: for EC50: GAL4-hLXRβ luciferase, HEK293, dose-response 32-1 μM, mean of three-five independent experiments, read-out: LXRβ EC50 (μM) ± SD; for Emax: HEK293, 24 h, read-out: LXRβ Efficacy (%) ± SD, % of compound effect versus 8 μM of 22R-HC
T2 sequence (P55055 222-460 limits assumed): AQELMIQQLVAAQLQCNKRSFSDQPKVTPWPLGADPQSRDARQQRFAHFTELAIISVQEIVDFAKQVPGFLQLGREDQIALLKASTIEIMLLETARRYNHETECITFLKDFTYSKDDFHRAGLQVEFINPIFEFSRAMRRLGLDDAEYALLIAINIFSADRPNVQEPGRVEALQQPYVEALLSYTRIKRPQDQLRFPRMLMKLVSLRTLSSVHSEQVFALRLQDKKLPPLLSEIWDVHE
Method: as §1, §2, §3

[3] = test system: ABCA1; assay: qPCR of ABCA1 expression in PMA-differentiated U937 cells; type: cell-based, human; settings: U937 differentiated with PMA 72 h; 10 μM, 6 hours
Method: (§4) U937 cells differentiated with PMA for 72 hours were treated with T0901317 (10 μM), 22R—HC (3) or with the tested compound (10 μM). […] (n=3/group). *p<0.05, **p<0.01, ***p<0.001.
(§5) LXR agonists induce the expression of target genes, which are involved in cholesterol homeostasis, particularly in the reverse cholesterol transport pathway.43 Indeed, LXR agonists induce the expression of ABCA1 both in macrophages and in many tissues of the periphery such as the intestine.44 Moreover, ABCA1 regulates cholesterol efflux to APOAI acceptors.45 In the liver, LXR activation promotes the biosynthesis of fatty acids, a process also termed as de novo lipogenesis by inducing the expression of the master regulator of hepatic lipogenesis sterol-regulatory element-binding protein 1C (SREBP-1c), as well as several downstream genes in the SREBP-1c pathway, including steroyl CoA desaturase 1 (SCD1) and fatty acid synthase (FASN).43 Therefore, it was investigated, by quantitative PCR (qPCR), the expression of ABCA1, SREBP1c, FASN, and SCD1, by using RNA from monocytic U937 cells (FIG. 3) and from hepatic HepG2 cells (FIG. 4) stimulated with our compounds, the non-steroidal agonist T0901317 or the endogenous ligand 22R—HC (3) as positive controls. […] Then, the induction of genes involved in the lipogenesis using the hepatic cell line HepG2. 43,22 was evaluated. […] Over the time, indeed, substantial efforts have been dedicated to the identification of LXR ligands able to turning on ABC transporter genes, without affecting lipogenic genes levels. This task is still one of the major challenge to the discovery of a clinically useful LXR modulator for atherosclerosis.
(§6) Quantitative Real-Time-PCR. U937 cell line was differentiated in foam macrophages with phorbol 12-myristate 13-acetate (PMA) 10 ng/ml (Sigma) for 72 hours at 37° C. in […] at the concentration of 3×10^6 cells in 10 ml RPMI 10% FBS. At day 3 nuclear receptor ligands were added for 6 hours. HepG2 cells were treated with the ligands as described by Quinet et al.22 Total RNA was purified by TRIZOL (Invitrogen, Carlsbad, Calif., USA). Reverse transcription was performed incubating 2 μg of total RNA 1 hour at 42° C. with MLV-reverse transcriptase (Promega). Quantitative PCR was performed using Sybr Green Master Mix (Applied Biosystems) and real-time PCR (Viia 7 Real Time PCR System, Applied Biosystems). All PCR reactions were done in triplicate. The comparative Ct method was used to quantify transcripts that were normalized for human GAPDH. the following primer pairs were used: […]

[4] = test system: SREBP1c; assay: qPCR of SREBP1c expression in PMA-differentiated U937 cells; type: cell-based, human; settings: U937 differentiated with PMA 72 h; 10 μM, 6 hours
Method: as §4, §5, §6

[5] = test system: SCD1; assay: qPCR of SCD1 expression in PMA-differentiated U937 cells; type: cell-based, human; settings: U937 differentiated with PMA 72 h; 10 μM, 6 hours
Method: as §4, §5, §6

[6] = test system: SREBP1c; assay: qPCR of SREBP1c expression in HepG2 cells; type: cell-based, human; settings: 10 μM
Method: HepG2 cells were treated with T0901317 (10 μM), 22R—HC (3) (10 μM) or with the tested compound (10 μM). […] (n=3/group). *p<0.05, **p<0.01, ***p<0.001.
LXR agonists induce the expression of target genes, which are involved in cholesterol homeostasis, particularly in the reverse cholesterol transport pathway.43 Indeed, LXR agonists induce the expression of ABCA1 both in macrophages and in many tissues of the periphery such as the intestine.44 Moreover, ABCA1 regulates cholesterol efflux to APOAI acceptors.45 In the liver, LXR activation promotes the biosynthesis of fatty acids, a process also termed as de novo lipogenesis by inducing the expression of the master regulator of hepatic lipogenesis sterol-regulatory element-binding protein 1C (SREBP-1c), as well as several downstream genes in the SREBP-1c pathway, including steroyl CoA desaturase 1 (SCD1) and fatty acid synthase (FASN).43 Therefore, it was investigated, by quantitative PCR (qPCR), the expression of ABCA1, SREBP1c, FASN, and SCD1, by using RNA from monocytic U937 cells (FIG. 3) and from hepatic HepG2 cells (FIG. 4) stimulated with our compounds, the non-steroidal agonist T0901317 or the endogenous ligand 22R—HC (3) as positive controls. […] 43,22 was evaluated. […]
Quantitative Real-Time-PCR. […] The comparative Ct method was used to quantify transcripts that were normalized for human GAPDH. the following primer pairs were used: […]

[7] = test system: TNFα; assay: qPCR of TNFα expression in differentiated U937 cells treated with LPS; type: cell-based, human; settings: differentiated U937, 6 hours, 10 μM in combination with LPS (100 ng/ml)
Method: U937 cells differentiated with PMA for 72 hours were treated with LPS (100 ng/ml) in combination with T0901317 (10 μM) or with the title compounds (10 μM). […] (n=3/group). *p<0.05, **p<0.01, ***p<0.001.
as §6

[8] = test system: murine Lewis lung carcinoma cells (LLC); assay: growth of LLC tumor cells in vitro; type: cell-based; settings: 96 hours, 10 μM
Text: (§7) We have performed a set of experiments to evaluate whether some LXR modulators, particularly PFM009 (13) and PFM018 (25) influence the growth of the murine Lewis lung carcinoma cells (LLC) in vitro and in vivo.

[9] = test system: Abca1; assay: qPCR of LXR target gene Abca1 in LLC tumor cells; type: cell-based, murine
Text: as §7

[10] = test system: LLC tumor; assay: LLC tumor growth in vivo in C57BL/6 mice; settings: 1×10^6 LLC cells subcutaneously, 30 mg/Kg/day for five consecutive days from day six
Method: Then, we tested whether these compounds could influence LLC tumor growth in vivo. To do that, C57BL/6 mice were challenged with 1×10^6 LLC tumor cells subcutaneously. Six days later, tumor-bearing mice were treated with PFM009 or PFM018 (30 mg/Kg/day) for five consecutive days and then evaluated for tumor growth.

[11] = test system: hFXR; assay: luciferase assay GAL4-hFXR in human embryonic kidney 293 cells; type: cell-based; settings: compounds at 10 μM
Method: Human embryonic kidney 293 cells were co-transfected with GAL4-hRXR (A), GAL4-hPPARγ (B), GAL4-hPXR (C) and GAL4-hFXR (D) expression plasmids together with GAL4 responsive element pMHC100X4-TK-luc and Renilla plasmids. Cells were incubated with vehicle (DMSO), PFMs at the concentration of 10 μM, and the nuclear receptor specific ligands 9cis retinoic acid (100 nM) (A), Rosiglitazone (RSG 100 nM) (B), T0901317 (100 nM) (C) and GW4064 (100 nM) (D) for six hours. The values represent mean±S.D. RLA, relative luciferase activity.
The selectivity of our compounds within the nuclear receptor superfamily was also evaluated by luciferase assays using GAL4-RXR, -PPARγ, -PXR and -FXR plasmids.
Cell Culture and Co-transfection Assays. Human embryonic Kidney 293 cells (American Type Culture Collection) were cultured in Dulbecco's Modified Eagle's medium containing 10% of fetal bovine serum at 37° C. in humidified atmosphere of 5% CO2. […] Luciferase activities were analyzed by luciferase Dual Reporter Assay Systems (Promega) according to the manufacturer's protocol. […]

Row | SMILES | EC50 [1] [µM] | Emax [1] [%] | LXR isoform selectivity profile [1] | EC50 [2] [µM] | Emax [2] [%] | ABCA1 expression [3] | SREBP-1c up-regulation [4] | SCD1 expression [5] | SREBP-1c up-regulation [6] | inhibition of TNFα expression [7] | LLC tumor growth in vitro [8] | expression of the LXR target gene Abca1 [9] | LLC tumor growth in vivo [10] | FXR activation [11] | LXRα Efficacy (%) ± SD ([1]; % of compound effect versus 8 μM of 22R-HC) | beta/alfa efficacy ratio ([2]; LXRβ efficacy over LXRα efficacy)
1 | CC[C@@H](C(C)C)[C@H]1O[C@@H]1[C@@H](C)[C@H]1CC[C@H]2[C@@H]3CC=C4C[C@@H](O)CC[C@]4(C)[C@H]3CC[C@]12C [Compound 13, (22R,23R)-22,23-Epoxystigmast-5-ene-3β-ol] | 2.09 ± 0.57 | 489 ± 89.1 | non-selective and poorly preferential LXRα agonists; also recorded: non-selective ligands; also recorded: non-selective LXR agonists | 3.79 ± 0.82 | 142 ± 16.8 | strong induction of ABCA1 expression | poor activators of SREBP1c and SCD1 | poor activators of SREBP1c and SCD1 | significant up-regulation of SREBP-1c | the most active | not able to alter LLC tumor growth in vitro | induced the expression of the LXR target gene Abca1 | significant control of LLC tumor growth | – | – | –
2 | CC[C@H](C[C@@H](O)[C@@H](C)[C@H]1CC[C@H]2[C@@H]3CC=C4C[C@@H](O)CC[C@]4(C)[C@H]3CC[C@]12C)C(C)C [Compound 20, (22R)-3β-stigmast-5-ene-3,22-diol] | – | – | – | – | – | strong induction of ABCA1 expression | poor activators of SREBP1c and SCD1 | poor activators of SREBP1c and SCD1 | – | – | – | – | – | strong FXR activation | – | –
3 | CC[C@H](C(=O)C[C@@H](C)[C@H]1CC[C@H]2[C@@H]3CC=C4C[C@@H](O)CC[C@]4(C)[C@H]3CC[C@]12C)C(C)C [Compound 25, 3β-Hydroxystigmast-5-ene-23-one] | 14.5 | 12.4 ± 4.2 | good selectivity for the LXRβ isoform in terms of EC50; also recorded: LXRβ-selective agonist; also recorded: selective LXRβ agonist | 6.02 ± 1.2 | ~50 | strong induction of ABCA1 expression | poor activators of SREBP1c and SCD1 | poor activators of SREBP1c and SCD1 | – | the most active | not able to alter LLC tumor growth in vitro | induced the expression of the LXR target gene Abca1 | significant control of LLC tumor growth | – | lowest efficacy at LXRα | 3.7
